We go through 18 compounds from publication PMC6072471 (MedChemComm, 2017).

SMILES strings stand for the structures. Where only a bound is given, the exact number is not on record here.

In series [1] the test system is rVSIV-ΔG-MarV-GP pseudotype. Nature of the series: organism not typed. The class given is cell-based, Marburg virus. The conditions noted are these: for IC50: HEK293, 24 h, read-out: ICMarV50.
Another series concerns rVSIV-ΔG-G pseudotype. Nature of the series: microbe, parasite or virus in culture. In kind it is cell-based, Vesicular stomatitis Indiana virus. Particulars: for IC50: Vesicular stomatitis Indiana virus, HEK293, 24 h, read-out: ICVSIV50.

With `CC1(C)[C@H]2CC[C@]1(C)[C@H](O)C2` [(–)-Borneol, reference compound], in the series on HEK293 cells, the “toxicity (in words)” value is given as “nontoxic”. Further, in series [1], the “activity against rVSIV-ΔG-MarV-GP (in words)” value is “not active” and the IC50 amounted to 203 µM. In addition, in the series on rVSIV-ΔG-G pseudotype, the “activity against rVSIV-ΔG-G (in words)” value was “not active” and the IC50 was above 650 µM.
For `CC1(C)[C@H]2CC[C@]1(C)[C@H](OC(=O)CN1CCCC1)C2` [Compound 1], in series [1], the “specificity of inhibition of MarV-GP-mediated infection (in words)” value (shortened to “specificity of inhibition … (in words)”) is recorded as “non-specific inhibitors” and the IC50 was found to be 52 ± 5 µM. The IC50 in the series on rVSIV-ΔG-G pseudotype was determined as 239 ± 19 µM.
Take `CC1(C)[C@H]2CC[C@]1(C)[C@H](OC(=O)CCN1CCCC1)C2` [Compound 2]: in series [1], the “specificity of inhibition … (in words)” value is reported as “non-specific inhibitors” and the IC50 amounted to 12 ± 1 µM. Besides, the IC50 in the series on rVSIV-ΔG-G pseudotype is 29 ± 6 µM.
With `CC1(C)[C@H]2CC[C@]1(C)[C@H](OC(=O)CN1CCCCC1)C2` [Compound 3], the IC50 in series [1] came to 86 ± 11 µM; with rVSIV-ΔG-G pseudotype, 102 ± 9 µM.
Take `CC1(C)[C@H]2CC[C@]1(C)[C@H](OC(=O)CCN1CCCCC1)C2` [Compound 4]: the figures for the IC50 (in series [1]; in the series on rVSIV-ΔG-G pseudotype) were 9 ± 1 µM and 121 ± 7 µM, respectively.
The corresponding values for `CC1CCN(CC(=O)O[C@@H]2C[C@@H]3CC[C@@]2(C)C3(C)C)CC1` [Compound 5] are 28 ± 2 µM and 77 ± 16 µM.
As to `CC1CCN(CCC(=O)O[C@@H]2C[C@@H]3CC[C@@]2(C)C3(C)C)CC1` [Compound 6], in series [1], the “specificity of inhibition … (in words)” value is reported as “highest virus-specific activity” and the IC50 turned out to be 4 ± 1 µM. Further, in the series with rVSIV-ΔG-G pseudotype, the IC50 came to 79 ± 19 µM.
For `CC1(C)[C@H]2CC[C@]1(C)[C@H](OC(=O)CN1CCOCC1)C2` [Compound 7], the “activity against rVSIV-ΔG-MarV-GP (in words)” value in series [1] is on record as “do not exhibit activity”. The results for the IC50 (in series [1]; in the series on rVSIV-ΔG-G pseudotype) were 263 ± 24 µM and 267 ± 10 µM, respectively.
As to `CC1(C)[C@H]2CC[C@]1(C)[C@H](OC(=O)CCN1CCOCC1)C2` [Compound 8], in series [1], the “activity against rVSIV-ΔG-MarV-GP (in words)” value is recorded as “do not exhibit activity” and the IC50 amounted to 78 ± 7 µM. In the series with rVSIV-ΔG-G pseudotype, the IC50 came to 257 ± 12 µM.
For the compound `CN1CCN(CC(=O)O[C@@H]2C[C@@H]3CC[C@@]2(C)C3(C)C)CC1` [Compound 9], the IC50 in series [1] worked out at 47 ± 3 µM; in the series on rVSIV-ΔG-G pseudotype, 187 ± 24 µM.
Consider `CN1CCN(CCC(=O)O[C@@H]2C[C@@H]3CC[C@@]2(C)C3(C)C)CC1` [Compound 10], for which the figures for the IC50 (in series [1]; with rVSIV-ΔG-G pseudotype) were 19 ± 1 µM and 318 ± 23 µM, respectively.
For the compound `CCN1CCN(CC(=O)O[C@@H]2C[C@@H]3CC[C@@]2(C)C3(C)C)CC1` [Compound 11], the IC50 came to 29 ± 2 µM in series [1] and 447 ± 15 µM with rVSIV-ΔG-G pseudotype.
As to `CCN1CCN(CCC(=O)O[C@@H]2C[C@@H]3CC[C@@]2(C)C3(C)C)CC1` [Compound 12], the results for the IC50 (in series [1]; with rVSIV-ΔG-G pseudotype) were 10 ± 2 µM and 106 ± 5 µM, respectively.
Turning to `CC1(C)[C@H]2CC[C@]1(C)[C@H](OC(=O)CN1CCNCC1)C2` [Compound 13], the values for the IC50 (in series [1]; in the series on rVSIV-ΔG-G pseudotype) were 20 ± 1 µM and 69 ± 13 µM, respectively.
`CC1(C)[C@H]2CC[C@]1(C)[C@H](OC(=O)CCN1CCNCC1)C2` [Compound 14]: the IC50 in series [1] was found to be 10 ± 4 µM; in the series with rVSIV-ΔG-G pseudotype, 102 ± 25 µM.
Turning to `CCCCN(CCCC)CC(=O)O[C@@H]1C[C@@H]2CC[C@@]1(C)C2(C)C` [Compound 15], the “toxicity (in words)” value in the series on HEK293 cells is “highest toxicity”. Further, the IC50 came out at 11 ± 1 µM in series [1] and 20 ± 1 µM with rVSIV-ΔG-G pseudotype.
On to `CCCCN(CCCC)CCC(=O)O[C@@H]1C[C@@H]2CC[C@@]1(C)C2(C)C` [Compound 16], for which, in the series with HEK293 cells, the “toxicity (in words)” value was “highest toxicity”. For the same compound, the IC50 in series [1] came out at 6 ± 1 µM; in the series on rVSIV-ΔG-G pseudotype, 48 ± 5 µM.
With `COc1ccc(CCN(C)CCCC(C#N)(c2ccc(OC)c(OC)c2)C(C)C)cc1OC` (stereo not shown) [Verapamil, reference compound], the figures for the IC50 (in series [1]; with rVSIV-ΔG-G pseudotype) were 13 ± 1 µM and above 200 µM, respectively.
